In patent US20230034660A1, “PEPTIDES THAT ENHANCE NMDA RECEPTOR FUNCTION AND USE THEREOF” (University of Pittsburgh - Of the Commonwealth System of …, priority 2019, published 2023):

Tested on: NMDAR
Assay: NMDAR-mediated currents evoked by uncaging MNI-caged glutamate in cortical cultures, ZX1 potentiation
Assay type: cell-based, rat
Settings: cortical cultures treated with peptide 3 μM overnight; held at −70 mV, Mg2+ free
Method: FIGS. 5A-5C: N2AZ reduces zinc inhibition of NMDAR currents in cortical cultures. (FIG. 5A) Representative image of a neuron in cortical culture filled with Alexa 548 during whole cell recording. Asterisk represents location of laser photolysis of MNI-caged glutamate (40 μM, 1 millisecond pulse) used to evoke EPSCs. (FIG. 5B) Sample traces of NMDAR EPSCs, averaged over 5 sweeps, evoked by photolysis of MNI-caged glutamate in cortical cultures held at −70 mV in Mg^2 + free solution. […] Bar graphs represent the average potentiation of responses 5 minutes after ZX1 application. Errors bars indicate mean±SEM. […]
Whole-cell recordings from cultured cortical neurons were obtained with glass micropipettes (3-6 MΩ) containing 140 mM CsF, 10 mM CsEGTA, 1 mM CaCl2, 10 mM HEPES, pH=7,2, 295 mOsm. […] Using ephus (Suter et al. 2010) and a Multiclamp 700B amplifier (Molecular Devices), NMDAR excitatory postsynaptic currents (EPSCs) were recorded in voltage clamp (held at −70 mV) in the presence of TTX (300 nM to prevent synaptic activity), DNQX (20 μM, AMPA and kainate receptor antagonist), and 4-Methoxy-7-nitroindolinyl (MNI)-caged glutamate (40 μM). […] The ZX1-mediated potentiation for each cell was calculated as the average percent increase in responses following application of the metal chelator across these 4 uncaging locations. […]

## NDSYLRSSL [Peptide N2AZ]
  ZX1 potentiation of NMDAR-mediated currents above baseline: 1.34±3.48%

## SNLSDSYDR [scN2AZ, reference compound]
  ZX1 potentiation of NMDAR-mediated currents above baseline: 37.40±11.63%
